Legend:
Type in all cases: in vivo
[1] = test system: Boophilus microplus; experiment: Boophilus microplus test (injection); settings: for activity (mortality in %; 100% means that all eggs are infertile): application rate of 20 μg/animal, injection, after 7 days; for mortality at 0.02 mg: Rhipicephalus microplus, 168 h, read-out: activity (mortality in %; 100% means that all eggs are infertile)
Experimental: Solvent: dimethyl sulfoxide
Five adult engorged female ticks (Boophilus microplus) are injected with […] compound solution into the abdomen. Ticks are transferred into replica plates and incubated in a climate chamber for a period of time. Egg deposition of fertile eggs is monitored.
After 7 days mortality in % is determined. 100% means that all eggs are infertile; 0% means that all eggs are fertile. […]

[2] = test system: Two-Spotted Spider Mite (Tetranychus Urticae); experiment: Test against two-spotted spider mite (Tetranychus urticae), spray; settings: active compound concentration of 100 ppm; adult mites; after 7 days
Source text: (§1) Solvent: 3 parts by weight of dimethylformamide
(§2) Emulsifier: 1 part by weight of polyoxyethylene alkyl phenyl ether

[3] = test system: Tobacco Cutworm (Spodoptera litura) Larvae; experiment: Test against tobacco cutworm (Spodoptera litura) larvae, leaf dip; settings: active compound concentration of 100 ppm, third instar larvae, after 7 days; for pest or weed control at 100 ppm: Spodoptera litura, foliar, 168 h, read-out: insecticidal activity
Outline: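 Sweet potato leaves were dipped in the test solution (DMF solvent, polyoxyethylene alkyl phenyl ether emulsifier), air-dried and offered to ten third-instar larvae per dish at 25 °C, with fresh leaves added on days 2 and 4. Mortality was counted at day 7 and expressed as % insecticidal activity (100% = all dead).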

[4] = test system: Cucurbit Leaf Beetle (Aulacophora Femoralis); experiment: Test against cucurbit leaf beetle (Aulacophora femoralis), leaf dip; settings: active compound concentration of 100 ppm, second instar larvae, after 7 days; for pest or weed control at 100 ppm: Aulacophora, foliar, 168 h, read-out: insecticidal activity
Experimental: as §1, §2
Leaves of cucumber were immersed in the test solution at the appropriate concentration, and the leaves were dried in air. The leaves were then put in a plastic cup containing sterilized black soil and five Aulacophora femoralis at second instar larvae were released in the cup. The cups were placed in a temperature-controlled chamber at 25° C. After 7 days, the number of dead larvae was counted, and thus the insecticidal activity was calculated. An insecticidal activity of 100% means that all larvae were killed, whereas an insecticidal activity of 0% means that no larva was killed.

[5] = test system: Lucilia cuprina 1st instar larvae; experiment: whole plant or invertebrate; settings: application rate of 100 ppm; after 48 hrs
Experimental: species: Lucilia cuprina 1st instar larvae (age 24 hrs)
solvent: dimethyl sulfoxide
Serial dilutions are made to obtain the desired rates. Approximately 20 Lucilia cuprina 1st instar larvae are transferred into a test tube containing 1 cm^3 of minced horse meat and 0.5 ml aqueous dilution of test compound. After 48 hrs percentage of larval mortality are recorded. 100% efficacy=all larvae are killed, […].

Structure (SMILES)	activity (mortality in %; 100% means that all eggs are infertile) [1] [%]	acaricidal activity [2] [%]	insecticidal activity [3] [%]	insecticidal activity [4] [%]	activity (percentage of larval mortality) [5] [%]	pest or weed control at 100 ppm [3] [%]	pest or weed control at 100 ppm [4] [%]	mortality at 0.02 mg [1] [%]
CCc1cc(C(F)(C(F)(F)F)C(F)(F)F)cc(C)c1NC(=O)c1ccc(C#N)nc1 [Compound J-1]	95	–	–	–	–	–	–	–
CCc1cc(C(F)(C(F)(F)F)C(F)(F)C(F)(F)F)cc(C)c1NC(=O)c1ccc(CNC(=O)CC(F)(F)F)c(F)c1 (stereo not drawn) [Compound 5-148]	–	100	100	100	–	–	–	–
Cc1cc(C(F)(C(F)(F)F)C(F)(F)F)cc(OC(F)F)c1NC(=O)c1ccc(CNC(=O)CC(F)(F)F)c(Cl)c1 [Compound 5-296]	–	100	100	100	–	–	–	–
CCc1cc(C(F)(C(F)(F)F)C(F)(F)C(F)(F)F)cc(C)c1NC(=O)c1ccc(CNC(=O)c2cccnc2F)c(Cl)c1 (stereo not drawn) [Compound 5-155]	–	100	100	100	–	–	–	–
CCc1cc(C(F)(C(F)(F)F)C(F)(F)F)cc(C)c1NC(=O)c1ccc(CNC(C)=O)c(Br)c1 [Compound 5-85]	–	100	100	100	–	–	–	–
CCc1cc(C(F)(C(F)(F)F)C(F)(F)F)cc(C)c1NC(=O)c1ccc(CNC(=O)c2cccnc2F)c(Br)c1 [Compound 5-93]	–	100	100	100	–	–	–	–
CCc1cc(C(F)(C(F)(F)F)C(F)(F)C(F)(F)F)cc(C)c1NC(=O)c1ccc(CNC(C)=O)c(Br)c1 (stereo not drawn) [Compound 5-157]	–	100	100	100	–	–	–	–
CC(=O)NCc1ccc(C(=O)Nc2c(C)cc(C(F)(C(F)(F)F)C(F)(F)F)cc2OC(F)F)cc1Cl [Compound 5-294]	–	100	100	100	–	–	–	–
CCc1cc(C(F)(C(F)(F)F)C(F)(F)F)cc(C)c1NC(=O)c1cc(F)c(CNC(=O)CC2CC2)cc1F [Compound 5-61]	–	100	100	100	–	–	–	–
CC(=O)NCc1ccc(C(=O)Nc2c(Cl)cc(C(F)(C(F)(F)F)C(F)(F)C(F)(F)F)cc2Cl)cc1Cl (racemic) [Compound 5-242]	–	100	100	100	–	–	–	–
CCc1cc(C(F)(C(F)(F)F)C(F)(F)C(F)(F)F)cc(C)c1NC(=O)c1ccc(CNC(=O)c2cccnc2Cl)c(Br)c1 (stereo not drawn) [Compound 5-175]	–	100	100	100	–	–	–	–
CCc1cc(C(F)(C(F)(F)F)C(F)(F)C(F)(F)F)cc(C)c1NC(=O)c1ccc(CNC(C)=O)c(I)c1 (stereo not drawn) [Compound 5-194]	–	–	100	–	95	–	–	–
CCc1cc(C(F)(C(F)(F)F)C(F)(F)F)cc(C)c1NC(=O)c1ccc(CNC(=O)CC(F)(F)F)c(Br)c1 [Compound 5-89]	–	100	100	100	–	–	–	–
CCc1cc(C(F)(C(F)(F)F)C(F)(F)Br)cc(C)c1NC(=O)c1ccc(CNC(=O)CSC)c(Cl)c1 (stereo not drawn) [Compound 5-320]	–	100	100	100	–	–	–	–
CCC(=O)NC1CCc2cc(C(=O)Nc3c(C)cc(C(F)(C(F)(F)F)C(F)(F)F)cc3CC)ccc21 (stereo not drawn) [Compound 10-3]	–	100	100	100	–	–	–	–
CCc1cc(C(F)(C(F)(F)F)C(F)(F)F)cc(C)c1NC(=O)c1ccc(CNC(=O)CC(F)(F)F)c(Cl)c1 [Compound 5-81]	–	100	100	100	–	–	–	–
CCC(=O)NCc1ccc(C(=O)Nc2c(C)cc(C(F)(C(F)(F)F)C(F)(F)F)cc2CC)cc1Br [Compound 5-86]	–	100	100	100	–	–	–	–
CCC(=O)NCc1ccc(C(=O)Nc2c(C)cc(C(F)(C(F)(F)F)C(F)(F)C(F)(F)F)cc2CC)cc1Cl (stereo not drawn) [Compound 5-151]	–	100	100	100	–	–	–	–

Structure (SMILES)	activity (mortality in %; 100% means that all eggs are infertile) [1] [%]	acaricidal activity [2] [%]	insecticidal activity [3] [%]	insecticidal activity [4] [%]	activity (percentage of larval mortality) [5] [%]	pest or weed control at 100 ppm [3] [%]	pest or weed control at 100 ppm [4] [%]	mortality at 0.02 mg [1] [%]
CSCC(=O)NCc1ccc(C(=O)Nc2c(Cl)cc(C(F)(C(F)(F)F)C(F)(F)C(F)(F)F)cc2Cl)cc1Cl (stereo not drawn) [Compound 5-331]	–	100	100	100	–	–	–	–
CCc1cc(C(F)(C(F)(F)F)C(F)(F)F)cc(C)c1NC(=O)c1ccc(CNC(=O)c2ccc(F)cc2)cc1 [Compound 5-36]	–	100	100	100	–	–	–	–
CCC(=O)NCc1ccc(C(=O)Nc2c(C)cc(C(F)(C(F)(F)F)C(F)(F)F)cc2CC)cc1Cl [Compound 5-78]	–	100	100	100	–	–	–	–
CCC(=O)NC(C)c1ccc(C(=O)Nc2c(C)cc(C(F)(C(F)(F)F)C(F)(F)F)cc2CC)cc1 (stereo not drawn) [Compound 9-3]	–	100	100	100	–	–	–	–
Cc1cc(C(F)(C(F)(F)F)C(F)(F)C(F)(F)F)cc(C)c1NC(=O)c1ccc(CNC(=O)CC(F)(F)F)c(F)c1F (stereo not drawn) [Compound 5-213]	–	100	100	100	–	–	–	–
CCc1cc(C(F)(C(F)(F)F)C(F)(F)F)cc(C)c1NC(=O)c1ccc(CNC(=O)CC(F)(F)F)c(C)c1 [Compound 5-102]	–	100	–	–	–	100	100	100
CCc1cc(C(F)(C(F)(F)F)C(F)(F)F)cc(C)c1NC(=O)c1ccc(CNC(=O)CC2CC2)cn1 [Compound 7-5]	95	–	100	100	–	–	–	–
CCC(=O)NCc1ccc(C(=O)Nc2c(C)cc(C(F)(C(F)(F)F)C(F)(F)Br)cc2CC)cc1Cl (stereo not drawn) [Compound 5-220]	–	100	100	100	–	–	–	–
CCC(=O)NCc1ccc(C(=O)Nc2c(Cl)cc(C(F)(C(F)(F)F)C(F)(F)C(F)(F)F)cc2Cl)cc1Cl (racemic) [Compound 5-243]	–	100	100	100	–	–	–	–
O=C(CC1CC1)NCc1ccc(C(=O)Nc2c(Cl)cc(C(F)(C(F)(F)F)C(F)(F)F)cc2Cl)cc1 [Compound 5-225]	–	100	100	100	–	–	–	–
CCc1cc(C(F)(C(F)(F)F)C(F)(F)F)cc(C)c1NC(=O)c1cc(F)c(CNC(=O)CC(F)(F)F)cc1F [Compound 5-62]	–	100	100	100	–	–	–	–
CCc1cc(C(F)(C(F)(F)F)C(F)(F)F)cc(C)c1NC(=O)c1ccc(C(C)NC(C)=O)cc1 (stereo not drawn) [Compound 9-2, 4-(1-acetamidoethyl)-N-[2-ethyl-4-(1,1,1,2,3,3,3-heptafluoropropan-2-yl)-6-methylphenyl]benzamide]	–	100	–	–	–	100	100	–
CCc1cc(C(F)(C(F)(F)F)C(F)(F)F)cc(C)c1NC(=O)c1cc(F)c(CNC(C)=O)cc1F [Compound 5-58]	–	100	100	100	–	–	–	–
CCc1cc(C(F)(C(F)(F)F)C(F)(F)Br)cc(C)c1NC(=O)c1ccc(CNC(=O)CC(F)(F)F)c(Cl)c1 (stereo not drawn) [Compound 5-221]	–	100	100	100	–	–	–	–
CCc1cc(C(F)(C(F)(F)F)C(F)(F)C(F)(F)F)cc(C)c1NC(=O)c1ccc(CNC(=O)CC(F)(F)F)c(Cl)c1 (stereo not drawn) [Compound 5-154]	–	100	100	100	–	–	–	–
CCc1cc(C(F)(C(F)(F)F)C(F)(F)F)cc(C)c1NC(=O)c1ccc(-n2cncn2)c(CNC(=O)OC(C)(C)C)c1 [Compound 12-1, tert-butyl[5-{[2-ethyl-4-(1,1,1,2,3,3,3-heptafluoropropan-2-yl)-6-methylphenyl]carbamoyl}-2-(1H-1,2,4-triazol-1-yl)benzyl]carbamate]	–	–	–	–	–	100	–	100
O=C(CC(F)(F)F)NCc1ccc(C(=O)Nc2c(Cl)cc(C(F)(C(F)(F)F)C(F)(F)C(F)(F)F)cc2Cl)cc1Cl (racemic) [Compound 5-244]	–	100	100	100	–	–	–	–

Source: US9227923B2, “Pesticidal carboxamides” (Bayer Intellectual Property GmbH, priority 2009, dated 2016)
